Experimental data taken from patent publication US20240327421A1 (Marquette University, priority 2017, published 2024).
Entries after “also recorded” stand apart in the source; their conditions may differ.

Assays:
[1] = target: T1, Glucocorticoid Receptor (GR) (Homo sapiens, UniProt P04150); assay: GeneBLAzer nuclear hormone receptor specificity assay, GR; type: cell-based; settings: 0.25 to 25 μM; listed as ISP358-2
T1 sequence (P04150 524-758 limits assumed): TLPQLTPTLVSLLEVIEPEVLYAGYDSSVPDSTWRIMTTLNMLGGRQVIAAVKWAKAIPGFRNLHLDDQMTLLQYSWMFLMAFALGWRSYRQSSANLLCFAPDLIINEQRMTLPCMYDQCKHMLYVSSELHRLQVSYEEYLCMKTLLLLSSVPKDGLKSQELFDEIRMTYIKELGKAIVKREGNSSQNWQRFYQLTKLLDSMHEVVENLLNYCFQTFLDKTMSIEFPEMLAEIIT

[2] = target: T2, Progesterone Receptor (PR) (Homo sapiens, UniProt P06401); assay: GeneBLAzer nuclear hormone receptor specificity assay, PR; type: cell-based; settings: 0.25 to 25 μM; listed as ISP358-2
T2 sequence (P06401 679-913 limits assumed): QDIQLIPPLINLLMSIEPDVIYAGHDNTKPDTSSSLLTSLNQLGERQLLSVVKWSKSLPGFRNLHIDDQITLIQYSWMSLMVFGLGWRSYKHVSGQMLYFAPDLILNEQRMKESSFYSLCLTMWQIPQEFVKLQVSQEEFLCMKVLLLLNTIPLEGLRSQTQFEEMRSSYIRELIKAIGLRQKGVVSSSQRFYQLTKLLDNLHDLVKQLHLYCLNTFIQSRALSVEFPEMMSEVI
Procedure: Nuclear Hormone Receptor Specificity Assay. Selectivity measurements were performed using the SelectScreen™ cell-based nuclear receptor profiling service from ThermoFisher (FIG. 3A). This is a FRET-based assay that uses GeneBLAzer™ technology. It detects ligand binding to and activation of a nuclear hormone receptor of interest (ligand binding domain; LBD) that is fused to a GAL4 DNA binding domain (DBD), which upon activation induces expression of beta-lactamase. The assay has a Z′≥0.5 in agonist mode. […]

[3] = target: T3, Thyroid Hormone Receptor (TRβ) (Homo sapiens, UniProt P10828); assay: GeneBLAzer nuclear hormone receptor specificity assay, TRβ; type: cell-based; settings: 0.25 to 25 μM; listed as ISP358-2
T3 sequence (P10828 217-461 limits assumed): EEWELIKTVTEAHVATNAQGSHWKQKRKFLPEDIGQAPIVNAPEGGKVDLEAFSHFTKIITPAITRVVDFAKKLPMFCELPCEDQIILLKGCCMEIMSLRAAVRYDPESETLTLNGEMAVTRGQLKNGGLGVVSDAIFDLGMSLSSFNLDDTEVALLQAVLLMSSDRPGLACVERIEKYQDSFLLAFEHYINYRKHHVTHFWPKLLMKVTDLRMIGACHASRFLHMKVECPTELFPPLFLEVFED

Vitamin D Receptor (VDR) = target: T4, Vitamin D Receptor (VDR) (Homo sapiens, UniProt P11473); assay: GeneBLAzer nuclear hormone receptor specificity assay, VDR; type: cell-based; settings: 0.25 to 25 μM; listed as ISP358-2
T4 sequence (P11473 127-423 limits assumed): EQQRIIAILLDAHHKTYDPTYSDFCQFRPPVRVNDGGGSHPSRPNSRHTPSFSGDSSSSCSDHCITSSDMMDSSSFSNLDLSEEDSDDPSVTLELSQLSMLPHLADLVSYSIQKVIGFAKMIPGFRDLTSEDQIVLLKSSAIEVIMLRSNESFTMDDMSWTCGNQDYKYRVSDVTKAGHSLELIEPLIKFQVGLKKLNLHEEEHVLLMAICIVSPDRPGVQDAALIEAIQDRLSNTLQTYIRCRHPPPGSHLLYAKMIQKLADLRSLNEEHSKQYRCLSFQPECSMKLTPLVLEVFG

CYP1A2 = target: T5, CYP1A2 (Homo sapiens, UniProt P05177); assay: P450-Glo CYP450 inhibition, CYP1A2; type: in vitro ADME; settings: highest concentration 62.6 μM; listed as ISP358-2
T5 construct: purchased Promega Corporation (Madison, WI)
T5 sequence (P05177 1-516): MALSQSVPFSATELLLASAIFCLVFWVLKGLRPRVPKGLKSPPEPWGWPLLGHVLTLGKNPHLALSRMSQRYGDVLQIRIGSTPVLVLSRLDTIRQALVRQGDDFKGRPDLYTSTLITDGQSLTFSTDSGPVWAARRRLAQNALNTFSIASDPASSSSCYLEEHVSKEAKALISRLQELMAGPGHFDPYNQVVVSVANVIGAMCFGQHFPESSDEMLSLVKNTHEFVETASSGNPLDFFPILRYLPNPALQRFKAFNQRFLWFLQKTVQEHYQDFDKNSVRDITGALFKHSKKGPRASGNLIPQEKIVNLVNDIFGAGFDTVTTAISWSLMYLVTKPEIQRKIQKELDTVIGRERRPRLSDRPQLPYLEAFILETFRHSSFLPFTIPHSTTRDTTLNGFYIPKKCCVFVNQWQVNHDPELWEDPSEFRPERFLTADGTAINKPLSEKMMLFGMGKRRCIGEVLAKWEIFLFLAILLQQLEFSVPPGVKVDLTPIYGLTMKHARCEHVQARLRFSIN
Procedure: (§1) In Vitro Druggability Assays-CYP450 Binding, hERG & Nephelometry. The P450-Glo™ Screening System from Promega Corporation (Madison, WI) was used to measure CYP450 (cytochrome P450) inhibition, as described in the kit instructions. Assays were run in 96-well white plates (Corning® 3912), and luminescence was measured on a SpectraMax M5 instrument (FIG. 6). The luminescence signal is proportional to the amount of luciferin product formed by the CYP reaction. Compounds were prepared in DMSO, then an eight-step 1:2 dilution series was made in DMSO. […] After adding the relevant Cytochrome P450 enzyme, the plate was incubated at 37° C. for 10 minutes to allow components to come to temperature. Next, the NADPH regeneration system was added to activate the reaction on a luminogenic P450-GloTM substrate, and incubated at 37° C. for 10-30 min, according to kit instructions for each CYP enzyme. The enzyme reaction was stopped by the addition of Luciferin Detection Reagent and luminescence of the plate was read in a Spectramax M5 (Molecular Devices) after a 20 min incubation at room temperature. Data were normalized to positive controls (α-naphthoflavone for CYP1A2, sulfaphenazole for CYP2C9, quinidine for CYP2D6, and ketoconazole for CYP3A4). Data analysis was with Prism software, as described above.

CYP2C9 = target: T6, CYP2C9 (Homo sapiens, UniProt P11712); assay: P450-Glo CYP450 inhibition, CYP2C9; type: in vitro ADME; settings: highest concentration 62.6 μM
T6 construct: purchased Promega Corporation (Madison, WI)
Procedure: as §1

CYP2D6 = target: T7, CYP2D6 (Homo sapiens, UniProt P10635); assay: P450-Glo CYP450 inhibition, CYP2D6; type: in vitro ADME; settings: highest concentration 62.6 μM; listed as ISP358-2
T7 construct: purchased Promega Corporation (Madison, WI)
Procedure: as §1

CYP3A4 = target: T8, CYP3A4 (Homo sapiens, UniProt P08684); assay: P450-Glo CYP450 inhibition, CYP3A4; type: in vitro ADME; settings: highest concentration 62.6 μM
T8 construct: purchased Promega Corporation (Madison, WI)
Procedure: as §1

[4] = Nephelometry (aggregation / solubility)

T6 sequence (P11712 whole entry): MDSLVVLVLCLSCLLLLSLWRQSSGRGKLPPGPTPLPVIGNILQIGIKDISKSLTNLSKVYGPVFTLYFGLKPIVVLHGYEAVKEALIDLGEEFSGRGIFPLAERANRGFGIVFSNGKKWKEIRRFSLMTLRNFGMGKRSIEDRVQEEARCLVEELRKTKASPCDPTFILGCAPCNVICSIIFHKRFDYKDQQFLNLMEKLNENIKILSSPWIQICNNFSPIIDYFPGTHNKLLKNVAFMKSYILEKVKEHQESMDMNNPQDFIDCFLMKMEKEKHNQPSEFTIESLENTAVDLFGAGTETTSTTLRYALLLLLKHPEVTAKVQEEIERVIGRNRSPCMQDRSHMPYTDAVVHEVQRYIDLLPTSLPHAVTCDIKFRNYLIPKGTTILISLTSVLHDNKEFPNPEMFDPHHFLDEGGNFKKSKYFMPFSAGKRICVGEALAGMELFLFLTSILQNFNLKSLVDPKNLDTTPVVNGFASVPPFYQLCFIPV
T8 sequence (P08684 whole entry): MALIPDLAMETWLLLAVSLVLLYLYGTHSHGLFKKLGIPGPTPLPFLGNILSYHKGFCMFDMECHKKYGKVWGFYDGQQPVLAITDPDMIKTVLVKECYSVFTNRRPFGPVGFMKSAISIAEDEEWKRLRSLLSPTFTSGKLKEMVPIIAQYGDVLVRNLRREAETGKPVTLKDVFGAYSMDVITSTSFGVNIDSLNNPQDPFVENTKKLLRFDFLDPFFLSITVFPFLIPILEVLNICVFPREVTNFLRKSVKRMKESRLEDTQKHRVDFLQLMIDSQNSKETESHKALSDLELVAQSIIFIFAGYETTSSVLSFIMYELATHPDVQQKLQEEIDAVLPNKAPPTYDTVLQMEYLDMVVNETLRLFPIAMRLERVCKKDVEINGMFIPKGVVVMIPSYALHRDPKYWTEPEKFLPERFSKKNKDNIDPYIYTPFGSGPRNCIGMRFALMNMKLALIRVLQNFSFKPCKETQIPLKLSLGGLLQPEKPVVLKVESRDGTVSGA
T7 sequence (P10635 whole entry): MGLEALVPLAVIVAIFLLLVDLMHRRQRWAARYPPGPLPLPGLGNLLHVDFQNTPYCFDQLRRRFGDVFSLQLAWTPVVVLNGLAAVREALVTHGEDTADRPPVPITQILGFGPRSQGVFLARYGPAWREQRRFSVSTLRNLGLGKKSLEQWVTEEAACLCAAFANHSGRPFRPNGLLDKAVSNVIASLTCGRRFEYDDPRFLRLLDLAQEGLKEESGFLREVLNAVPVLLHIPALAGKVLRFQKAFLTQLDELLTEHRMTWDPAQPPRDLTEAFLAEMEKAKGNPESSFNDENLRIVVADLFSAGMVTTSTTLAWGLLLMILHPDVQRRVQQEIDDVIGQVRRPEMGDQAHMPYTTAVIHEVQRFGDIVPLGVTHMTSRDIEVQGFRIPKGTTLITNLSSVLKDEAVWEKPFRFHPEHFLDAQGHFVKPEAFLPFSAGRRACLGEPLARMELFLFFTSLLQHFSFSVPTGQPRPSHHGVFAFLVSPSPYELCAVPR

In the case of `OC[C@H]1CC[C@H](c2ccc(O)cc2)CC1` [Compound 16], the “agonist activity, GR” value [1] is reported as “not an agonist; also recorded: no significant off-target activity”, the “agonist activity, PR” value [2] is reported as “not an agonist; also recorded: no significant off-target activity” and the “agonist activity, TRβ” value [3] is reported as “not an agonist; also recorded: no significant off-target activity”. For the same molecule, the “agonist activity, VDR” value (Vitamin D Receptor (VDR)) was “not an agonist; also recorded: no significant off-target activity”, the CYP1A2 inhibition (CYP1A2) was “no significant inhibition” and the CYP2C9 inhibition (CYP2C9) was “no significant inhibition”. The IC50 (CYP2C9) was 34 ± 4.7 µM, the CYP2D6 inhibition (CYP2D6) was “no significant inhibition” and the CYP3A4 inhibition (CYP3A4) was “no significant inhibition”. For the same molecule, the IC50 (CYP3A4) was 89 ± 18 µM and the “solubility / aggregation by nephelometry” value [4] was “reasonably soluble”.
